According to patent publication US5374641A, “N-(3-pyridylalkyl)sulfonamide compounds which have useful pharmaceutical activity” (Terumo Kabushiki Kaisha, priority 1991, dated 1994):

Key:
[1] = system: platelet aggregation, induced by U-46619; experiment: Test Examples 4: Platelet aggregation inhibiting activity (guinea pig PRP, U-46619); type: cell-based; conditions: Cavia porcellus, 320 nM U-46619, 37° C., read-out: Platelet aggregation activity IC50 (concentration of 50% inhibition of platelet aggregation, induced by U-46619)
Protocol: A blood sample was taken from carotid artery of a guinea pig using a syringe containing 3.8% sodium citrate solution (1/10 volume of the blood to be collected). The blood was centrifuged to obtain platelet riched plasma (PRP: number of platelets, 3×10^5 /μ1).
Two hundred microliters of the PRP and 23.75 µl of physiological saline were placed in a cuvette, which was then set in an aggregometer, followed by heating at 37° C. for two minutes, and then followed by addition of 1.25 µl of the solution of an N-(3-pyridylalkyl)sulfonamide derivative of the present invention in ethanol, for 3-min incubation. Then, U-46619, one of stable PGG2 /H2 derivatives, having strong action inducing platelet aggregation, was added, so that platelet aggregation was measured by an aggregometer [Hematracer VI: manufactured by NIKO Bioscience, K.K.].

thromboxane synthetase [2] = target: T1, thromboxane synthetase (Homo sapiens, UniProt P24557); experiment: Test Example 5: Thromboxane synthetase inhibiting activity (human platelet microsomal fraction, RIA); type: biochemical; conditions: PGH2, room temperature, 60 seconds, read-out: Inhibition of thromboxane synthetase IC50
T1 sequence (P24557 1-533): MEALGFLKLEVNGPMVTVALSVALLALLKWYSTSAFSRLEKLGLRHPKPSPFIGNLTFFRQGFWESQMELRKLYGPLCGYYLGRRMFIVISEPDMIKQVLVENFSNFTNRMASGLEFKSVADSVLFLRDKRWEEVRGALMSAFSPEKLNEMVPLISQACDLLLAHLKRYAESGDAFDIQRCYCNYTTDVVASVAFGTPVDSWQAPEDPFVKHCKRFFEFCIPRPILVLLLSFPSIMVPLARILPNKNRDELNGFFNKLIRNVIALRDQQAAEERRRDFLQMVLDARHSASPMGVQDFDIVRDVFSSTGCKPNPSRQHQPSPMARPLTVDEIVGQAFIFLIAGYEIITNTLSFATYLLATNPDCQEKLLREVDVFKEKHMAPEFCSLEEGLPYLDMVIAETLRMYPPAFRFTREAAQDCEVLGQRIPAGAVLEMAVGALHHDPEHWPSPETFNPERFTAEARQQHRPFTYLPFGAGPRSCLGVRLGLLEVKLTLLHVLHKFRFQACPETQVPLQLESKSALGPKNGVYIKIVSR
Protocol: Arachidonic acid (10 nM) was added to 250 μg of microsome of sheep seminal vesicle gland, commercially available from Hilran Biochemical, Co. Ltd., Israel, Lot SM36, which was then reacted at room temperature for 90 seconds to prepare PGH2.
Commercially available human platelet microsomal fraction (200 μg) as a source for thromboxane synthetase was mixed with the PGH2 solution prepared in the same manner as for samples, and reacted together at room temperature for 60 seconds. Diethyl ether/methanol/0.2M citric acid (30:4:1) was added to extract thromboxane A2 generated and its quantity was then analyzed by RIA using a kit manufactured by NEN, Co. LTd.

thromboxane synthetase [3] = target: T1, thromboxane synthetase; experiment: Test Example 7: Thromboxane synthetase inhibiting activity (human PRP, thrombin, RIA); type: cell-based; conditions: for IC50: 20 U/ml thrombin, RIA, read-out: Inhibition of thromboxane A2 synthesis (IC50); for thromboxane synthetase inhibiting activity (in words): thrombin
Protocol: A blood sample was collected from human fore arm using a syringe containing 3.8% sodium citrate solution (1/10 volume of the blood to be collected) and centrifuged to obtain platelet rich plasma (PRP; 3×10^5 platelets/μl ).
(§1) A 200 μl portion of the thus prepared PRP and 23.75 μl of physiological saline were put in a cuvette, the cuvette was set into the aforementioned aggregometer and the contents in the cuvette were incubated at 37° C. for 2 minutes. Thereafter, 1.25 μ1 dimethyl sulfoxide (DMSO) solution of each of the N-(3-pyridylalkyl)sulfonamide derivatives obtained in Examples 36, 37, 38 and 40 was put in the cuvette and incubated for 3 minutes, followed by the addition of 20 U/ml solution of thrombin to cause platelet aggregation. A portion of the supernatant after aggregation reaction was mixed with diethyl ether/methanol/0.2M citric acid (30:4:1), and the thus formed thromboxane A2 was extracted and its quantity was analyzed by RIA using a kit of Amersham.

[4] = system: platelet aggregation caused by U-46619; experiment: Test Example 1: Platelet aggregation inhibiting activity (human PRP, U-46619); type: cell-based; conditions: for IC50: Platelet, 320 nM U-46619, 37° C., read-out: Inhibitory effect against platelet aggregation caused by U-46619 (IC50); for platelet aggregation inhibiting activity (in words): U-46619
Protocol: (§2) A blood sample was collected from human fore arm using a syringe containing 3.8% sodium citrate solution (1/10 volume of the blood to be collected) and centrifuged to obtain platelet rich plasma (PRP; 3 ×10^5 platelets/μ1).
(§3) Platelet aggregation was measured using an aggregometer (Hematracer VI, Niko Bioscience Co., Ltd.) by putting 200 µl of the thus prepared PRP and 23.75 µl of physiological saline in a cuvette, setting the cuvette into the aggregometer and incubating the contents at 37° C. for 2 minutes, adding 1.25 μ1 dimethyl sulfoxide (DMSO) solution of each of the N-(3-pyridylalkyl)sulfonamide derivatives obtained in Examples 1, 3, 4, 6 and 8 and incubating for 3 minutes, and then adding U-46619 (Cayman Chemical Co., Inc.) which is a stable PGG2/ H2 derivative having a strong platelet aggregation causing activity.
In this instance, the term "IC50 "as used herein means concentration of the N-(3-pyridylalkyl)sulfonamide derivative of the present invention required to inhibit 50% of the platelet agglutination when platelet aggregation without introducing the inventive derivative was defined as 100%.

thromboxane synthetase [5] = target: T1, thromboxane synthetase; experiment: Test Example 2: Thromboxane synthetase inhibiting activity (human PRP, thrombin, RIA); type: cell-based; conditions: for thromboxane synthetase inhibiting activity (in words): thrombin; for IC50: 20 U/ml thrombin, RIA, read-out: Inhibition of thromboxane A2 synthesis (IC50)
Protocol: as §2
as §1, with “200 μ1” for “200 μl”, “23.75 µl” for “23.75 μl”, “Examples 1, 3” for “Examples 36, 37, 38”, “and 7” for “and 40”, “acid (30:4:1 ),” for “acid (30:4:1),”

[6] = system: platelet aggregation caused by U-46619; experiment: Test Examples 6: Platelet aggregation inhibiting activity (human PRP, U-46619); type: cell-based; conditions: for IC50: Platelet, 320 nM U-46619, 37° C., read-out: Inhibitory effect against platelet aggregation caused by U-46619 (IC50); for platelet aggregation inhibiting activity (in words): U-46619
Protocol: A blood sample was collected from human fore arm using a syringe containing 3.8% sodium citrate solution (1/10 volume of the blood to be collected) and centrifuged to obtain platelet rich plasma (PRP; 3×10^5 platelets/μl).
as §3, with “200 μof” for “200 µl of”, “23.75 μl” for “23.75 µl”, “1.25 μl” for “1.25 μ1”, “Examples 35, 36, 37” for “Examples 1, 3, 4, 6”, “and 42” for “and 8”, “stable PGG2 /H2” for “stable PGG2/ H2”
In this instance, the term "IC50 " as used herein means concentration of the N-(3-pyridylalkyl)sulfonamide derivative of the present invention required to inhibit 50% of the platelet aggregation when platelet aggregation without introducing the inventive derivative was defined as 100%.

SMILES | IC50 [1] [nM] | IC50 (thromboxane synthetase [2]) [nM] | also measured
O=C(O)COc1ccc(CC(CCNS(=O)(=O)c2ccc(Cl)cc2)c2cccnc2)cc1 (stereo not shown) [Example 33] | 17000 | 30 | 
O=C(O)COc1ccc(CC(NS(=O)(=O)c2ccccc2)c2cccnc2)cc1 (stereo not shown) [Example 13] | 840 | 8900 | 
O=C(O)COc1ccc(C(CNS(=O)(=O)c2ccc(Cl)cc2)Cc2cccnc2)cc1 (stereo not shown) [Example 23, 4-[{1-(4-chlorobenzenesulfonamido)-3-(3-pyridyl)}propan-2-yl]phenoxyaceticacid] | 360 | 5100 | 
O=C(O)COc1ccc(CCC(NS(=O)(=O)c2ccc(Cl)cc2)c2cccnc2)cc1 (stereo not shown) [Example 31, 4-[3-(4-chlorobenzenesulfonamido)-3-(3-pyridyl)propyl]phenoxyacetic acid] | 15000 | 940 | 
O=C(O)c1ccc(CC(NS(=O)(=O)c2ccc(Cl)cc2)c2cccnc2)cc1 (stereo not shown) [Example 19] | 4200 | 1000 | 
Cc1ccc(S(=O)(=O)NC(Cc2ccc(OCC(=O)O)cc2)c2cccnc2)cc1 (stereo not shown) [Example 11] | 1900 | 21000 | 
O=C(O)Cc1ccc(CC(NS(=O)(=O)c2ccc(Cl)cc2)c2cccnc2)cc1 (stereo not shown) [Example 21, 4-[2-(4-chlorobenzenesulfonamido)-2-(3-pyridyl)ethyl]phenylacetic acid] | 680 | 2200 | 
O=C(O)c1ccc(CCC(NS(=O)(=O)c2ccc(Cl)cc2)c2cccnc2)cc1 (stereo not shown) [Example 29, 4-[3-(4-chlorobenzenesulfonamido)-3-(3-pyridyl)propyl]benzoic acid] | 2000 | 1500 | 
CCOC(=O)Oc1ccc(CC(CNS(=O)(=O)c2ccc(Cl)cc2)c2cccnc2)cc1 (stereo not shown) [Example 27] | 52000 | 28000 | 
O=C(O)/C=C/c1ccc(CC(NS(=O)(=O)c2ccc(Cl)cc2)c2cccnc2)cc1 (stereo not shown) [Example 15, 4-[2-(4-chlorobenzenesulfonamido]-2-(3-pyridyl)ethyl]cinnamic acid] | 1100 | 36000 | 
CCOC(=O)/C(C)=C/c1ccc(C(CNS(=O)(=O)c2ccc(Cl)cc2)c2cccnc2)cc1 (stereo not drawn) [Example 40, ethyl 4-[2-(4-chlorobenzenesulfonamido)-1-(3-pyridyl)ethyl]-α-methylcinnamate] |  |  | IC50 (thromboxane synthetase [3]): 1.5 µM; thromboxane synthetase inhibiting activity (in words) (thromboxane synthetase [3]): excellent thromboxane synthetase inhibiting activity
O=C(O)COc1ccc(C(CCNS(=O)(=O)c2ccc(Cl)cc2)c2cccnc2)cc1 (stereo not shown) [Example 7, 4-[3-(4-chlorobenzenesulfonamido)-1-(3-pyridyl)propyl]phenyloxyacetic acid] |  |  | IC50 [4]: 30 µM; platelet aggregation inhibiting activity (in words) [4]: markedly high platelet aggregation inhibiting activity; thromboxane synthetase inhibiting activity (in words) (thromboxane synthetase [5]): excellent thromboxane synthetase inhibiting activity
O=C(O)COc1ccc(C(CCNS(=O)(=O)c2ccc(Cl)cc2)Cc2cccnc2)cc1 (stereo not shown) [Example 8, 4-[1-(4-chlorobenzenesulfonamido)-4-(3-pyridyl)-3-butyl]phenyloxyacetic acid] |  |  | IC50 (thromboxane synthetase [5]): 4300 nM
CCOC(=O)Oc1ccc(C(CNS(=O)(=O)c2ccc(Cl)cc2)Cc2cccnc2)cc1 (stereo not shown) [Example 24] | 40000 | 2200 | 
O=C(O)CCc1ccc(CC(NS(=O)(=O)c2ccc(Cl)cc2)c2cccnc2)cc1 (stereo not shown) [Example 17, 3-{4-[2-(4-chlorobenzenesulfonamido)-2(3-pyridyl)ethyl]phenyl}propionic acid] | 1800 | 30000 | 
O=C(O)COc1ccc(CC(CNS(=O)(=O)c2ccc(Cl)cc2)c2cccnc2)cc1 (stereo not shown) [Example 26] | 60000 | 2400 | 
CCOC(=O)COc1ccc(C(CCNS(=O)(=O)c2ccc(Cl)cc2)Cc2cccnc2)cc1 (stereo not shown) [Example 9] |  |  | IC50 [4]: 5.1 µM; platelet aggregation inhibiting activity (in words) [4]: markedly high platelet aggregation inhibiting activity
C/C(=C\c1ccc(C(CNS(=O)(=O)c2ccc(Cl)cc2)Cc2cccnc2)cc1)C(=O)O (stereo not drawn) [Example 36, 4-[1-(4-chlorobenzenesulfonamido)-3-(3-pyridyl)-2-propyl]-α-methylcinnamic acid] |  |  | IC50 (thromboxane synthetase [3]): 8.3 µM; thromboxane synthetase inhibiting activity (in words) (thromboxane synthetase [3]): excellent thromboxane synthetase inhibiting activity; IC50 [6]: 71 µM; platelet aggregation inhibiting activity (in words) [6]: markedly high platelet aggregation inhibiting activity
C/C(=C\c1ccc(C(CCNS(=O)(=O)c2ccc(Cl)cc2)c2cccnc2)n1C)C(=O)O (stereo not shown) [Example 42] |  |  | IC50 [6]: 43 µM; platelet aggregation inhibiting activity (in words) [6]: markedly high platelet aggregation inhibiting activity
C/C(=C\c1ccc(CC(NS(=O)(=O)c2ccc(Cl)cc2)c2cccnc2)cc1)C(=O)O (stereo not shown) [Example 35] |  |  | IC50 [6]: 48 µM; platelet aggregation inhibiting activity (in words) [6]: markedly high platelet aggregation inhibiting activity
CCOC(=O)COc1ccc(C(NS(=O)(=O)c2ccc(Cl)cc2)c2cccnc2)cc1 (stereo not shown) [Example 1, ethyl 4-[4-chlorobenzenesulfonamide-(3-pyridyl)methyl]phenyloxyacetate] |  |  | IC50 [4]: 96 µM; platelet aggregation inhibiting activity (in words) [4]: markedly high platelet aggregation inhibiting activity; IC50 (thromboxane synthetase [5]): 37 nM; thromboxane synthetase inhibiting activity (in words) (thromboxane synthetase [5]): excellent thromboxane synthetase inhibiting activity
